From ChEMBL document CHEMBL4823324, “Discovery of BMS-986318, a Potent Nonbile Acid FXR Agonist for the Treatment of Nonalcoholic Steatohepatitis” (ACS Med Chem Lett, 2021) come the findings set out here.

For one series, the target named is T1, Progesterone receptor (Homo sapiens, UniProt P06401).
T1 sequence (P06401 whole entry): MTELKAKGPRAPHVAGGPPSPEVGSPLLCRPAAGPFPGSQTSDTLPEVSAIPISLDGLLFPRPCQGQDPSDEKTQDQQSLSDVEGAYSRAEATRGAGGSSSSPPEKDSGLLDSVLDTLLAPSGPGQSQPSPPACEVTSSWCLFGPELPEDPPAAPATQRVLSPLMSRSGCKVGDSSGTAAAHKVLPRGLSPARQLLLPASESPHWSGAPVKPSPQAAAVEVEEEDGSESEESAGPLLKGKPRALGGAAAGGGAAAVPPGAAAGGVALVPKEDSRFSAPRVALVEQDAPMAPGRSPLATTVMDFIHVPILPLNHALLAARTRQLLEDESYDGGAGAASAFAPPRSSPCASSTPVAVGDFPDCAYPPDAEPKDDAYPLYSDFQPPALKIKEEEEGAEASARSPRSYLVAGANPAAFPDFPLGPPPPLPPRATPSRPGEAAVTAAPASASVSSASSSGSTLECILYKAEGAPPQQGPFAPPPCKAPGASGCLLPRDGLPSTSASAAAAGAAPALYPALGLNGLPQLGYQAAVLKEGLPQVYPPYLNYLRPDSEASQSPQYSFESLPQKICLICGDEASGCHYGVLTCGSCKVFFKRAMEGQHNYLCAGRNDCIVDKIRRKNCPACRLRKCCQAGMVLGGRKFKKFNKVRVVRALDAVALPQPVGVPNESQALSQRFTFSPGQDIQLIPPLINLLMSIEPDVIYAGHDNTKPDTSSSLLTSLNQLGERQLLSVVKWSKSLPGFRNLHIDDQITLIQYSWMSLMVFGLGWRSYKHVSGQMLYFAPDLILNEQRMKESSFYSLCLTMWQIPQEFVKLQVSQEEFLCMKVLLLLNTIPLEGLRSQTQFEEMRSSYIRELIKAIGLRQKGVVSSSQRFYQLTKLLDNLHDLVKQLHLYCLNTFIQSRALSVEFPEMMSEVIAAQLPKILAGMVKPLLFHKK
The series can be described thus: Activation of progesterone receptor (unknown origin) by fluorescence polarization based competition assay. For orientation: Polarisation of emitted light reports the rotation of a fluorescent probe.

Series [1] deals with T2, Nuclear receptor ROR-gamma (Homo sapiens, UniProt P51449).
T2 sequence (P51449 whole entry): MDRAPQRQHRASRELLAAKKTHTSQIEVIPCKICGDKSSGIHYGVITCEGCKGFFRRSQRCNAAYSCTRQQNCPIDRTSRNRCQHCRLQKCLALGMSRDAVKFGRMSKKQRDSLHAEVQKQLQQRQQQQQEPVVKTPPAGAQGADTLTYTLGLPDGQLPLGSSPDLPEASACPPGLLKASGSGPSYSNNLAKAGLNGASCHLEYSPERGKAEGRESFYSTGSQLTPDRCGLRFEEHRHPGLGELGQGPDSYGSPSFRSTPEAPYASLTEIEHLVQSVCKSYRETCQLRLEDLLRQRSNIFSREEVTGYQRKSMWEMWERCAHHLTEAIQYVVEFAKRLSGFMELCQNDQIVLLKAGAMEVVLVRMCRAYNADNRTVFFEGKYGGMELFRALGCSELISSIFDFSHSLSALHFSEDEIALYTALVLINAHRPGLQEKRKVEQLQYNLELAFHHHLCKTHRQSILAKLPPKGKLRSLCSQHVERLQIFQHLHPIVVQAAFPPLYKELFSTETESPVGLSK
The series can be described thus: Antagonist activity at human RORgammaT co-expressed with Gal4-luciferase reporter in human Jurkat cells incubated for 18 hrs by Steady-Glo luciferase reporter based luminescence analysis. The format is cell-based. On the technique in general: Reporter assays use an easily measured gene product as a stand-in for the process of interest.

Series [2] in a line: Volume of distribution at steady state in C57B6 mouse at 1 mg/kg, iv. It is filed as ADME, organism-based. The following applies: in vivo, read-out: Vdss.
Series [3] has as its target T3, Oxysterols receptor LXR-alpha (Homo sapiens, UniProt Q13133).
T3 sequence (Q13133 whole entry): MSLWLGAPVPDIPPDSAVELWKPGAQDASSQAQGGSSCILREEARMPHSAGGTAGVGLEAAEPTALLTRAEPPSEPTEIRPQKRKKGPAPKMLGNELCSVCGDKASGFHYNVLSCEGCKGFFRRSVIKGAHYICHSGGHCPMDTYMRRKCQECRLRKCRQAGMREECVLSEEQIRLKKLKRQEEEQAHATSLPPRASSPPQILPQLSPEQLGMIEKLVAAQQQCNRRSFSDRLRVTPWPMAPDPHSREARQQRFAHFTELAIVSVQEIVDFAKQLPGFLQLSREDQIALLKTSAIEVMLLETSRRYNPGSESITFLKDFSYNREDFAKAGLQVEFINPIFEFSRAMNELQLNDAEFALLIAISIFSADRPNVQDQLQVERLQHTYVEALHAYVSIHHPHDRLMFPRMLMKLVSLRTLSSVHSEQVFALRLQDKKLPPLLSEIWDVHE
The series can be described thus: Activation of human LXRalpha co-expressed with TK-luciferase reporter in African green monkey CV-1 cells incubated for overnight by Steady-Glo luciferase reporter gene based luminescence analysis. The format is cell-based.

Series [4] is described as follows: Plasma concentration in mouse at 3 mg/kg, po measured after 6 hrs. It is filed as ADME, organism-based.
A short description of series [5]: Metabolic stability in mouse liver microsomes assessed as half life. The format is ADME, Microsome. A general note: Microsomes from liver hold many membrane-bound enzymes, among them those of drug oxidation.
Another series has as its target T4, Estrogen receptor (Homo sapiens, UniProt P03372).
T4 sequence (P03372 whole entry): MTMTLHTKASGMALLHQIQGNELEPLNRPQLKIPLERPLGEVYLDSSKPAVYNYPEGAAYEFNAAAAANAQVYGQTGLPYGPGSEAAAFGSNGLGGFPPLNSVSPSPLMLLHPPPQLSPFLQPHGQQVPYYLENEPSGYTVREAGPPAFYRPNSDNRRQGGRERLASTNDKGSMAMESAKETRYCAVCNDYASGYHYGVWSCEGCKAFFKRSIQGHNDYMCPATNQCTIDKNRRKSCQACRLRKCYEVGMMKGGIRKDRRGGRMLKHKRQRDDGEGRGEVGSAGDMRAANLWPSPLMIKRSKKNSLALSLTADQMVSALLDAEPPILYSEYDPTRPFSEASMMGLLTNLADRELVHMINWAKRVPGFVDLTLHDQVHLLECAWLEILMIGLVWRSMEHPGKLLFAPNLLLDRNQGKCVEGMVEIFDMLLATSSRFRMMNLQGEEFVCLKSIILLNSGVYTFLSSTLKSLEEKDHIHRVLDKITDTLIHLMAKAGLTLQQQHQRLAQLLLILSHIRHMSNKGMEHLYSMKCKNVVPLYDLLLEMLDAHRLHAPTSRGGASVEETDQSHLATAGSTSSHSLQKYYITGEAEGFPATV
The series can be described thus: Activation of estrogen receptor alpha (unknown origin) by fluorescence polarization based competition assay.

Series [6] is described as follows: Half life in C57B6 mouse at 2 mg/kg, po administered as solution. It is filed as ADME, organism-based. The note with it: in vivo.

In the case of `O=C(O)c1cc(C(F)(F)F)c2cc(N3CCC4(C=C(c5c(-c6c(Cl)cncc6Cl)noc5C5CC5)C4)CC3)ccc2n1`, the EC50 (at Progesterone receptor; in series [3]; at Estrogen receptor) was > 40 µM in each case. Besides, in series [1], the IC50 (commonly the point on the concentration scale where inhibition reaches its midpoint) is > 40 µM. Moreover, the Vd in series [2] came to 0.56 L/kg. For the same compound, in series [4], the concentration at 6 h turned out to be 37 nM. Also, the results for the half-life in series [5] and in series [6] were > 2 h and 2.3 h, respectively.
